These results are taken from ChEMBL document CHEMBL1201862, “PubChem BioAssay data set” (2004).

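Growth conditions: 96-well plates. Treatment: test compound, 48 hours, 5 concentrations. Analysis: linear interpolation between bracketing concentrations; unreached endpoints set to highest concentration. Here, GI50 denotes the concentration required for 50% inhibition of growth.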 Active and inactive are the calls of the source. Cut-off read from the data, not from the text of the source: active = GI50 up to about 1.1 µM and inactive = higher. Some results are limits rather than exact numbers.

Some test systems named below: CAKI-1; CCRF-CEM; DU-145; HOP-92; HT-29; Hs-578T; IGROV-1; MDA-MB-435; MOLT-4; NCI-H226; NCI-H460; NCI/ADR-RES; OVCAR-5; RXF 393; SNB-75; SW-620; TK-10; UACC-257; UO-31; SK-MEL-2.
Common to all, as to experiment: NCI anticancer screen, dose series, 48 h

With `COc1ccc(Nc2nc3ccccc3nc2C(=O)O)cc1OC`, the GI50 is 29.6 µM (inactive) in the assay with CAKI-1; 47.3 µM (inactive) in the assay with CCRF-CEM; > 100 µM (inactive) with DU-145; 27.5 µM (inactive) with HOP-92; > 100 µM (inactive) in the assay on HT-29; > 100 µM (inactive) with Hs-578T. Besides, the GI50 was 98.4 µM (inactive) in the assay on IGROV-1; > 100 µM (inactive) in the assay on MDA-MB-435; 65 µM (inactive) in the assay with MOLT-4; 57 µM (inactive) with NCI-H226; 45.8 µM (inactive) in the assay on NCI-H460; 35.2 µM (inactive) in the assay on NCI/ADR-RES. The GI50 was > 100 µM (inactive) in the assay on OVCAR-5; 74.1 µM (inactive) in the assay with RXF 393; 69.2 µM (inactive) with SNB-75; > 100 µM (inactive) with SW-620; 82.8 µM (inactive) in the assay on TK-10; 98.2 µM (inactive) with UACC-257. For the same compound, the GI50 with UO-31 was 29.6 µM (inactive).

In the case of `COc1ccc(-n2c(-c3ccccc3)cc(-c3cccs3)c2-c2cccs2)cc1`, the GI50 in the assay with CAKI-1 was > 100 µM (inactive); in the assay on CCRF-CEM, 0.0818 µM (active); in the assay on DU-145, > 100 µM (inactive); in the assay on HOP-92, > 100 µM (inactive); in the assay on HT-29, > 100 µM (inactive); in the assay on Hs-578T, > 100 µM (inactive). The GI50 in the assay with IGROV-1, in the assay with MDA-MB-435, with MOLT-4, with NCI-H226, in the assay with NCI-H460 and in the assay on NCI/ADR-RES was > 100 µM (inactive) in each case. Further, the GI50 is > 100 µM (inactive) in the assay with OVCAR-5; 76.9 µM (inactive) in the assay with RXF 393; 88.9 µM (inactive) in the assay on SNB-75; > 100 µM (inactive) in the assay on SW-620; > 100 µM (inactive) in the assay with TK-10; > 100 µM (inactive) in the assay with UACC-257. Moreover, the GI50 with UO-31 is > 100 µM (inactive).

In the case of `CCc1nc(Cl)nc(Cl)c1Cl`, the GI50 is 0.193 µM (active) with CAKI-1; 0.177 µM (active) in the assay with CCRF-CEM; 9.06 µM (inactive) in the assay on DU-145; 2.11 µM (inactive) in the assay with HOP-92; 0.394 µM (active) in the assay on HT-29; 2.6 µM (inactive) in the assay with Hs-578T. The GI50 in the assay with IGROV-1 is 3.72 µM (inactive); in the assay on MDA-MB-435 it was 1.06 µM (active); in the assay with MOLT-4 it was 0.332 µM (active); in the assay with NCI-H226, 6.5 µM (inactive); with NCI-H460, 7.98 µM (inactive); in the assay on NCI/ADR-RES, 2.52 µM (inactive). The GI50 in the assay on OVCAR-5 was 0.7 µM (active); in the assay on RXF 393 it was 1.74 µM (inactive); in the assay on SNB-75, 5.53 µM (inactive); with SW-620 it was 0.467 µM (active); in the assay on TK-10, 6.93 µM (inactive); in the assay with UACC-257, 0.547 µM (active). The GI50 in the assay on UO-31 is 0.276 µM (active).

As for `COC(=O)Nc1nc2cc(S(=O)(=O)NC(CC(C)C)C(=O)OC)ccc2[nH]1` (configuration not stated), the GI50 was 3.66 µM (inactive) in the assay with CAKI-1; 3.52 µM (inactive) with CCRF-CEM; 2.43 µM (inactive) in the assay on DU-145; 2.83 µM (inactive) in the assay with HOP-92; 2.81 µM (inactive) in the assay with HT-29; 0.818 µM (active) in the assay with Hs-578T. The GI50 in the assay with IGROV-1 is 2.25 µM (inactive); in the assay on MDA-MB-435, 0.396 µM (active); with MOLT-4, 3.67 µM (inactive); in the assay on NCI-H226 it was 10.8 µM (inactive); with NCI-H460, 4.17 µM (inactive); with NCI/ADR-RES, 6.08 µM (inactive). In addition, the GI50 was 3.87 µM (inactive) in the assay with OVCAR-5; 3.21 µM (inactive) in the assay with RXF 393; 8.83 µM (inactive) in the assay on SK-MEL-2; 2.44 µM (inactive) with SNB-75; 3.25 µM (inactive) in the assay on SW-620; 6.47 µM (inactive) in the assay on TK-10. Besides, in the assay with UO-31, the GI50 was 5.96 µM (inactive).

Consider `CC1(c2ccc(Cl)cc2)c2ccccc2C(=O)N1CCCN1C(=O)c2ccccc2C1=O` (configuration not stated), for which the GI50 was 86.3 µM (inactive) with CAKI-1; 45.1 µM (inactive) with CCRF-CEM; 40.3 µM (inactive) with DU-145; 73.6 µM (inactive) with HOP-92; 32.2 µM (inactive) with HT-29; 35.4 µM (inactive) with Hs-578T. For the same compound, the GI50 was 9.33 µM (inactive) with IGROV-1; 33.3 µM (inactive) in the assay with MDA-MB-435; 29.5 µM (inactive) in the assay with MOLT-4; 22.7 µM (inactive) in the assay with NCI-H226; 19.9 µM (inactive) with NCI/ADR-RES; 29.4 µM (inactive) in the assay on RXF 393. Besides, the GI50 with SK-MEL-2 is 20.3 µM (inactive); in the assay on SNB-75 it was 58.9 µM (inactive); with SW-620, 56.8 µM (inactive); with TK-10, > 100 µM (inactive); with UACC-257, 51.8 µM (inactive); with UO-31, 39.9 µM (inactive).

Consider `FC(F)(F)c1ccc2c(c1)nc(Cc1ccc(Cl)c(Cl)c1)n2CC1CCCN2CCCCC12` (configuration not stated), for which the GI50 in the assay with CAKI-1 was 29.7 µM (inactive); in the assay on DU-145, 50.6 µM (inactive); in the assay with HOP-92 it was 22.9 µM (inactive); with HT-29 it was 11.2 µM (inactive); in the assay with Hs-578T, 10.9 µM (inactive); with IGROV-1 it was 21.2 µM (inactive). Moreover, the GI50 in the assay with MDA-MB-435 was 30.4 µM (inactive); in the assay with MOLT-4, 37.4 µM (inactive); with NCI-H226 it was 26.5 µM (inactive); in the assay on NCI-H460, 19.6 µM (inactive); with NCI/ADR-RES, 25.8 µM (inactive); in the assay with OVCAR-5, 17.4 µM (inactive). Besides, the GI50 in the assay on RXF 393 was 23.6 µM (inactive); with SK-MEL-2, 35.5 µM (inactive); with SNB-75, 28.6 µM (inactive); in the assay on SW-620, 34.8 µM (inactive); in the assay on TK-10, 19.1 µM (inactive); in the assay with UACC-257, 18.5 µM (inactive). The GI50 with UO-31 is 0.169 µM (active).

Regarding `OC(C/C=N/N=C/CC(O)(C(F)(F)Cl)C(F)(F)Cl)(C(F)(F)Cl)C(F)(F)Cl`, the GI50 in the assay on CAKI-1 is > 10 µM (inactive); in the assay on CCRF-CEM it was > 10 µM (inactive); in the assay on DU-145 it was > 10 µM (inactive); in the assay with HOP-92 it was 7.19 µM (inactive); in the assay on HT-29 it was > 10 µM (inactive); with Hs-578T it was > 10 µM (inactive). Besides, the GI50 with IGROV-1, in the assay with MDA-MB-435, in the assay on MOLT-4, in the assay on NCI-H226, in the assay with NCI-H460 and in the assay with NCI/ADR-RES was > 10 µM (inactive) throughout. Further, the GI50 in the assay with RXF 393, with SK-MEL-2, in the assay on SNB-75, with SW-620, with TK-10 and in the assay on UACC-257 was > 10 µM (inactive) throughout. The GI50 in the assay with UO-31 is > 10 µM (inactive).

In the case of `CC(=O)OC1/C(=C/c2ccc([N+](=O)[O-])cc2)C[C@H]2[C@@H]3CC=C4C[C@@H](OC(C)=O)CC[C@]4(C)[C@H]3CC[C@]12C` (some centres not stated), the GI50 with CAKI-1 was > 48.9 µM (inactive); in the assay on CCRF-CEM, > 40.6 µM (inactive); in the assay on DU-145 it was > 100 µM (inactive); in the assay on HOP-92 it was 34.4 µM (inactive); in the assay with HT-29, > 100 µM (inactive); in the assay with Hs-578T it was 74.5 µM (inactive). Further, the GI50 with IGROV-1 was > 100 µM (inactive); in the assay with MDA-MB-435 it was > 100 µM (inactive); with NCI-H226, 4.63 µM (inactive); with NCI-H460 it was > 100 µM (inactive); in the assay on NCI/ADR-RES, > 43 µM (inactive); in the assay on OVCAR-5, > 100 µM (inactive). In addition, the GI50 is 20 µM (inactive) in the assay on RXF 393; > 61.5 µM (inactive) in the assay with SK-MEL-2; > 100 µM (inactive) with SW-620; 29.6 µM (inactive) with TK-10; > 100 µM (inactive) in the assay with UACC-257; > 100 µM (inactive) in the assay on UO-31.

As to `COc1ccc2cc(C(C)C(=O)N3CCOC3=O)ccc2c1` (configuration not stated), the GI50 with CAKI-1, in the assay on CCRF-CEM, in the assay with DU-145, in the assay on HOP-92, in the assay with HT-29 and in the assay with Hs-578T was > 100 µM (inactive) each time. The GI50 in the assay on IGROV-1, in the assay on MDA-MB-435, in the assay with MOLT-4, with NCI-H226, in the assay on NCI-H460 and in the assay on NCI/ADR-RES was > 100 µM (inactive) in each case. The GI50 with OVCAR-5 is > 100 µM (inactive); in the assay on RXF 393 it was > 100 µM (inactive); with SNB-75, 44.7 µM (inactive); in the assay on SW-620, > 100 µM (inactive); with TK-10, > 100 µM (inactive); in the assay on UACC-257, > 100 µM (inactive). Also, the GI50 in the assay with UO-31 is > 100 µM (inactive).

Take `Oc1ccccc1/C=N/N1C(=S)N(C23CC4CC(CC(C4)C2)C3)C(=N\c2ccccc2)/C1=N/c1ccccc1`: the GI50 was > 100 µM (inactive) in the assay on CAKI-1; > 100 µM (inactive) in the assay with DU-145; 29.7 µM (inactive) in the assay on HOP-92; 29.6 µM (inactive) in the assay on HT-29; > 100 µM (inactive) in the assay on Hs-578T; > 100 µM (inactive) with IGROV-1. In addition, the GI50 with MDA-MB-435 is > 100 µM (inactive); in the assay on MOLT-4 it was 3.92 µM (inactive); in the assay on NCI-H226 it was > 100 µM (inactive); in the assay on NCI-H460, 71.8 µM (inactive); in the assay with NCI/ADR-RES, > 100 µM (inactive); with OVCAR-5, > 100 µM (inactive). For the same compound, the GI50 was 82.8 µM (inactive) in the assay on RXF 393; > 100 µM (inactive) in the assay on SK-MEL-2; > 100 µM (inactive) with SW-620; > 100 µM (inactive) in the assay with TK-10; > 100 µM (inactive) in the assay on UACC-257; > 100 µM (inactive) in the assay on UO-31.
